Measured values: US10392402B2, “Heterocyclic compounds as kinase inhibitors” (TRANSLATIONAL DRUG DEVELOPMENT LLC, priority 2015, dated 2019)

How the values were obtained:
MV411 cell line = experiment: Cell viability assay ([…]-GLO), MV411; type: cell-based; conditions: for IC50: Homo sapiens, MV4-11, MV411 (ITD-FLT3+), 72 hours treatment; for FLT3-ITD+ Selectivity (K562/MV411): ratio of K562 to MV411 IC50
Protocol: (§1) Cell viability in the presence of varying concentrations of the above listed compounds at different time points was used to assess cytotoxicity and the effect of the compounds on cell proliferation.
(§2) Cell viability was measured by the […]-GlO® cell viability assay from Promega (Madison, Wis.). The […]-GlO® Luminescent Cell Viability Assay is a homogeneous method to determine the number of viable cells in culture based on quantitation of the ATP present, which signals the presence of metabolically active cells. Following treatment, […]-GlO® is added to treatment wells and incubated at 37° C. luminescence values were measured at using a Molecular Devices Spectramax microplate reader.
(§3) Cells were grown to 70% confluency, trypsinized, counted, and seeded in 96 well flat-bottom plates at a final concentration of 2.5×10^3-5×10^3 cells/well (Day 0). Cells were allowed to incubate in growth media for 24 hours. Treatment with the test agents or standard agents began on Day 1 and continued for 72 hours. At the 72-hour time point, treatment containing media was removed.
(§4) For single agent and combination studies, data from each experiment was collected and expressed as % Cell Growth using the following calculation: % Cell Growth=(ftest/fvehicle)×100 Where ftest is the luminescence of the tested sample, and fvehicle is the luminescence of the vehicle in which the drug is dissolved. Dose response graphs and IC50 values were generated using Prism 6 software (GraphPad) using the following equation: Y=(Top−Bottom/(1+10^((logIC50−X)−HillSlope)) Where X is the logarithm of the concentration and Y is the response. Y starts at the Bottom and goes to the Top with a sigmoid shape.
The experiments also evaluated the selectivity of the compounds for inhibiting growth of cancer cells carrying a mutation in the Flt3 gene. The MV411 cell line expresses the mutant allele of Flt3 with internal tandem duplications (ITD) of the gene. See Quentmeier et al., “FLT3 Mutations in Acute Myeloid Leukemia Cell Lines,” Leukemia 17(1), 2003, 120-124. […] See Grafone et al., “Monitoring of FLT3 Phosphorylation Status and Its Response to Drugs By Flow Cytometry in AML Blast Cells,” Hematol Oncol. 26(3), 2008, 159-166. Patients with ITD-FLT3^+ acute myeloid leukemia (AML) experience an extremely poor prognosis.

ROCK1 = ROCK1 (Homo sapiens (Human), UniProt Q13464); experiment: ROCK1 kinase inhibition assay (LABCHIP peptide phosphorylation); type: biochemical; conditions: 5 μM ATP, 3 nM ROCK1, 3 hours at 25° C.
ROCK1, sequence (Q13464 whole entry): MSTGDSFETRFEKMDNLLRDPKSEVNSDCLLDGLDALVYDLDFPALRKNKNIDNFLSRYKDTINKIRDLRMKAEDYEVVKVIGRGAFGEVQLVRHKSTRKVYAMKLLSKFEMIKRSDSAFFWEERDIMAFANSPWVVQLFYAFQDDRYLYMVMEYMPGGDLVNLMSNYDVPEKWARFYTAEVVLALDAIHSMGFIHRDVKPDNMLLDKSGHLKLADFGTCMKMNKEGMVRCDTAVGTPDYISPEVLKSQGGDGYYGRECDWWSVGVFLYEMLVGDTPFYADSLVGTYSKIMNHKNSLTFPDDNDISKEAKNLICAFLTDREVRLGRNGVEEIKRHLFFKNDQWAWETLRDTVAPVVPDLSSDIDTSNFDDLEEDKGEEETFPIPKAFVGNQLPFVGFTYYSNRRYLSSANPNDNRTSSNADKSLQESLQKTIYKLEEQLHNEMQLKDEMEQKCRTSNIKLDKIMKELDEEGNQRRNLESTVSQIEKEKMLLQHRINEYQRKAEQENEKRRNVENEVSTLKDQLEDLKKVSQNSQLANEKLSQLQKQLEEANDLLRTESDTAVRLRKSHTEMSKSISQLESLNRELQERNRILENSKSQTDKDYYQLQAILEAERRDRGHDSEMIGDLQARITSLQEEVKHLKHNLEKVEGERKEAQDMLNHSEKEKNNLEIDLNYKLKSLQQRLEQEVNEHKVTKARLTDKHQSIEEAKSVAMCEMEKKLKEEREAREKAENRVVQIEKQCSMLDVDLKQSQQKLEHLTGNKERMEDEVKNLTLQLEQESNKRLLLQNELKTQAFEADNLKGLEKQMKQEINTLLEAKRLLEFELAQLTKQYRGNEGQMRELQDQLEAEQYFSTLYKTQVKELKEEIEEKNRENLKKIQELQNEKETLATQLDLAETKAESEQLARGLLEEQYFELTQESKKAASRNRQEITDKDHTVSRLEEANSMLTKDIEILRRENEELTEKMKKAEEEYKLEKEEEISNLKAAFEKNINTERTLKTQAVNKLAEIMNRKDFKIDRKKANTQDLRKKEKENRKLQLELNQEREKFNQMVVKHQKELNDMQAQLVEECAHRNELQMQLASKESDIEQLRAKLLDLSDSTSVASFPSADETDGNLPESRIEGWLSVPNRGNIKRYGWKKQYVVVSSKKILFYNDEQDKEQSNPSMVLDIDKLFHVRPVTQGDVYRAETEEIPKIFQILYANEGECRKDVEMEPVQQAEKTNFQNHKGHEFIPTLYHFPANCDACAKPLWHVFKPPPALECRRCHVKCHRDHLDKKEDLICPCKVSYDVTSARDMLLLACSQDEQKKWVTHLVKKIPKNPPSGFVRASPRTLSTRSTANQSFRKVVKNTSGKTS
Protocol: (§5) The peptide is >98% purity by Capillary Electrophoresis. The peptide is phosphorylated by the protein kinase ROCK1 or ROCK2. The ROCK1 or ROCK2 enzyme, substrate, and cofactors (ATP and Mg^2+) are combined in a well of a microtiter plate and incubated for 3 hours at 25° C. At the end of the incubation, the reaction is quenched by the addition of an EDTA-containing buffer. The substrate and product are separated and quantified electrophoretically using the microfluidic-based LABCHIP® 3000 Drug Discovery System from Caliper Life Sciences (Hopkinton, Mass.).
(§6) Substrate and product peptides present in each sample are separated electrophoretically using the LABCHIP® 3000 capillary electrophoresis instrument. […] Change in the relative fluorescence intensity of the substrate and product peaks is the parameter measured reflecting enzyme activity. Capillary electrophoregramms (RDA acquisition files) are analyzed using HTS Well Analyzer software (Caliper Life Sciences, Hopkinton, Mass.). The kinase activity in each sample is determined as the product to sum ratio (PSR): P/(S+P), where P is the peak height of the product peptide and S is the peak height of the substrate peptide. For each compound, enzyme activity is measured at various concentrations (12 concentrations of compound spaced by 3× dilution intervals). Negative control samples (0%-inhibition in the absence of inhibitor) and positive control samples (100%-inhibition in the presence of 20 mM EDTA) are assembled in replicates of four and are used to calculate %-inhibition values for each compound at each concentration. Percent inhibition (Pinh) is determined using the following equation: Pinh=(PSR0%−PSRinh)/(PSR0%−PSR100%)*100 where PSRinh is the product sum ratio in the presence of inhibitor, PSR/% is the average product sum ratio in the absence of inhibitor, and PSR100% is the average product sum ratio in 100%-inhibition control samples. The IC50 values of inhibitors are determined by fitting the inhibition curves (Pinh versus inhibitor concentration) by 4 parameter sigmoidal dose-response model using XLfit 4 software (IBDS).

ROCK2 = ROCK2 (Homo sapiens (Human), UniProt O75116); experiment: ROCK2 kinase inhibition assay (LABCHIP peptide phosphorylation); type: biochemical; conditions: 7 μM ATP, 2.5 nM ROCK2, 3 hours at 25° C.
ROCK2, sequence (O75116 whole entry): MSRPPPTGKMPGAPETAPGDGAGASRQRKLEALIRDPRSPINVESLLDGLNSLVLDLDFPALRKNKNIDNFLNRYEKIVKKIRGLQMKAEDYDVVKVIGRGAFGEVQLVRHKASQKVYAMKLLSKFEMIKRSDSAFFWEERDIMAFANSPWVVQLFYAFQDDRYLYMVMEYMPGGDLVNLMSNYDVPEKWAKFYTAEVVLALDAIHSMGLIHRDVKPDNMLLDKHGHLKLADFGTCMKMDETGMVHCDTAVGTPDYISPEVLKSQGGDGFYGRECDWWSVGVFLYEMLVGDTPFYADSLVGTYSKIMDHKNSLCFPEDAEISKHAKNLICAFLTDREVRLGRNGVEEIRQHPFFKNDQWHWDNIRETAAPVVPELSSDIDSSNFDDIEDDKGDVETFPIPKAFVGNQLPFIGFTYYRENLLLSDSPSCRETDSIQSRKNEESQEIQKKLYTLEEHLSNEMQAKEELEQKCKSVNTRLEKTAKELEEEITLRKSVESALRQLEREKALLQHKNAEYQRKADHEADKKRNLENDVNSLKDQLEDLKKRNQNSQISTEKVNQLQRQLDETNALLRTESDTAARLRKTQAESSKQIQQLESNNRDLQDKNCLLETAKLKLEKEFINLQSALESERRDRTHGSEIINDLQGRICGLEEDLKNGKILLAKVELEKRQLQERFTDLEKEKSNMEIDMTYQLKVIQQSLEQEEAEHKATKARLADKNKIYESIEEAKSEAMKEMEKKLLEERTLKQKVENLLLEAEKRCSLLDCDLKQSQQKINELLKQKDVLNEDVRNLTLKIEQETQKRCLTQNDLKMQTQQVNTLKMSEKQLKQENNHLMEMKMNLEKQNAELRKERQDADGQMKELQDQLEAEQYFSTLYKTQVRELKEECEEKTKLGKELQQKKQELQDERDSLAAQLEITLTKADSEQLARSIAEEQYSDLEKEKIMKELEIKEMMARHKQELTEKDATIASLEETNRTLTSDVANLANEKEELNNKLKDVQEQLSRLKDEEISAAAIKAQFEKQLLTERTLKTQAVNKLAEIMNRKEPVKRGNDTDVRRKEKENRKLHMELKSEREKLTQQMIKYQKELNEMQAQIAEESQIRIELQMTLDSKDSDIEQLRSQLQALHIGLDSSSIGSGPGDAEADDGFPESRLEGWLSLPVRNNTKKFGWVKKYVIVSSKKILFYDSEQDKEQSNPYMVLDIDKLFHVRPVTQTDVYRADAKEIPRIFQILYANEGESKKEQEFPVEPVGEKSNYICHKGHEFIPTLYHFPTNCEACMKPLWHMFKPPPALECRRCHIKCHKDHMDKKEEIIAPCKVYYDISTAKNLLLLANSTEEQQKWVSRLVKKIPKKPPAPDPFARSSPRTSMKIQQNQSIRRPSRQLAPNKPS
Protocol: as §5, §6

K562 cell line = experiment: Cell viability assay ([…]-GLO), K562; type: cell-based; conditions: Homo sapiens; K562 (does not express ITD-FLT3), 72 hours treatment
Protocol: as §1, §2
as §3, with “removed. Viable cell numbers were quantified by the […]-GLO® cell viability assay as described above. Results from these studies were used to calculate an IC50 value (concentration of drug that inhibits cell growth by 50 percent of control) for each compound.” for “removed.”
as §4, with “shape. […]” for “shape.”

| IC50 (MV411 cell line) | IC50 (ROCK1) | IC50 (ROCK2) | IC50 (K562 cell line) | Compound | FLT3-ITD+ Selectivity (K562/MV411) (MV411 cell line) |
| --- | --- | --- | --- | --- | --- |
| 43.7 µM |  |  | > 100 µM | O=C(NCc1cccc(O)c1)Nc1cc(-c2ccncc2)[nH]n1 [Compound 3] | >2 |
| 10.2 µM | 0.073 µM | 0.0161 µM | 43.6 µM | COc1cccc(CNC(=O)Nc2cc(-c3ccncc3)[nH]n2)c1 [Compound 5] | 4 |
| 7.6 µM | 0.102 µM | 0.0229 µM | 89.1 µM | COc1cccc(CN(C)C(=O)Nc2cc(-c3ccncc3)[nH]n2)c1 [Compound 7] | 12 |
| 39.8 µM | 0.237 µM | 0.0391 µM | 97.2 µM | COc1cccc(CN(CCO)C(=O)Nc2cc(-c3ccncc3)[nH]n2)c1 [Compound 9] | 2 |
| 14.5 µM | 0.0636 µM | 0.0221 µM | > 100 µM | COc1cccc(CN(CCN(C)C)C(=O)Nc2cc(-c3ccncc3)[nH]n2)c1 [Compound 11] | >7 |
| 34 µM | 0.13 µM | 0.0287 µM | 85 µM | COc1cccc(CNC(=O)Nc2cnn(-c3ccncc3)c2)c1 [Compound 25] | 3 |
| 7.1 µM | 0.0651 µM | 0.0174 µM | > 100 µM | COc1cccc(CNC(=O)c2cc3ccc(-c4cn[nH]c4)nc3s2)c1 [Compound 40] | >14 |
| 7.8 µM |  |  | 17.8 µM | COc1cc(CNC(=O)Nc2cc(-c3ccncc3)[nH]n2)ccc1F [Compound 47] | 2 |
|  | 6.4 µM | 1.87 µM |  | COc1cccc(CNC(=O)Nc2cc(-c3ccncc3)[nH]n2)c1F [Compound 48] |  |
| 7.8 µM |  |  | 17.8 µM | COc1cc(F)cc(CNC(=O)Nc2cc(-c3ccncc3)[nH]n2)c1 [Compound 49] | 2 |
| 7.8 µM | 1.01 µM | 0.239 µM | > 100 µM | COc1ccc(F)c(CNC(=O)Nc2cc(-c3ccncc3)[nH]n2)c1 [Compound 50] | >13 |
| 17 µM |  |  | > 100 µM | COCCOc1cccc(CNC(=O)Nc2cc(-c3ccncc3)[nH]n2)c1 [Compound 51] | >6 |
| 11.2 µM | 0.034 µM | 0.0087 µM | > 100 µM | COc1cccc([C@@H](C)NC(=O)Nc2cc(-c3ccncc3)n[nH]2)c1 [Compound 52] | >9 |
| 93.3 µM |  |  | 64.6 µM | COc1cccc([C@@H](C)NC(=O)N(C)c2cc(-c3ccncc3)n[nH]2)c1 [Compound 53] | 1 |
| 12.6 µM |  |  | > 100 µM | COc1ccc(OC)c(CNC(=O)Nc2cc(-c3ccncc3)n[nH]2)c1 [Compound 54] | >8 |
| 0.7 µM |  |  | 0.8 µM | Cc1c[nH]c2nccc(Oc3c(F)cc(Nc4cc(Cl)nc(N)n4)cc3F)c12 [Compound A, reference compound] |  |

| Compound | IC50 (MV411 cell line) | IC50 (ROCK1) | IC50 (ROCK2) | IC50 (K562 cell line) | FLT3-ITD+ Selectivity (K562/MV411) (MV411 cell line) |
| --- | --- | --- | --- | --- | --- |
| O=C(N[C@H](CO)c1cccc(F)c1)c1cc(-c2ccncc2)[nH]n1 [Compound 1] | 67.6 µM | 0.207 µM | 0.098 µM | > 100 µM | >1 |
